This note sets out measurements from ChEMBL document CHEMBL4819103, “Discovery of selective fragment-sized immunoproteasome inhibitors” (Eur J Med Chem, 2021).

pIC50: −log10 of the molar value.

By pIC50 is commonly meant −log10 of the IC50, conventionally taken in molar units.

Data set [1] has as its target T1, Proteasome subunit beta type-8 (Homo sapiens, UniProt P28062).
T1 sequence (P28062 whole entry): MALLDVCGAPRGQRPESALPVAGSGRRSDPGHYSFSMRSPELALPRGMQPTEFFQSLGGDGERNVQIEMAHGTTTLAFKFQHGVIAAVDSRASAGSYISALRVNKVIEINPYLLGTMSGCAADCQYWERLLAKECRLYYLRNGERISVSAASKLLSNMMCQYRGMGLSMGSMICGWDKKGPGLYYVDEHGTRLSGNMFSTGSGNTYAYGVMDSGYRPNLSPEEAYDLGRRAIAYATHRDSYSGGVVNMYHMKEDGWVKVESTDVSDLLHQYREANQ
Briefly: Inhibition of human chymotrypsin-like beta 5i subunit of iCP using suc-LLVY-AMC as flurogenic substrate for 90 mins by fluorescence-based assay.

Data set [2] deals with T2, Proteasome Macropain subunit MB1 (Homo sapiens) (UniProt P28074).
T2 sequence (whole entry): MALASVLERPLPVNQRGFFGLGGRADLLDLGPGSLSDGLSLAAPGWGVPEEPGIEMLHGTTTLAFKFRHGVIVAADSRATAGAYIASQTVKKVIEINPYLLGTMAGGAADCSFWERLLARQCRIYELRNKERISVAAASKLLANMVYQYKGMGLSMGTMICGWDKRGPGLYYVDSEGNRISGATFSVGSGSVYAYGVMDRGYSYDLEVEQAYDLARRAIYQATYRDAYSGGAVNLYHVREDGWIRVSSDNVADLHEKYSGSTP
Briefly: Inhibition of beta 5 chymotrypsin-like activity (unknown origin) at 100 uM using Suc-LLVY-AMC as substrate for 90 mins by fluorescence based assay. Further details: scale not given: the % may be the effect or the level left.

Data set [3] in a line: Thiol reactivity of the compound assessed as TNB2-depletion at 200 uM measured upto 24 hrs by TNB2-depletion assay. Format: physicochemical.
Data set [4] concerns the target T3, Proteasome subunit beta type-8 (Homo sapiens) (UniProt P28062).
T3 sequence (whole entry): T1 sequence (P28062 whole entry)
The data set can be described thus: Inhibition of human chymotrypsin-like beta 5i subunit of iCP assessed as residual activity using suc-LLVY-AMC as flurogenic substrate at 100 uM for 90 mins by fluorescence-based assay.

Data set [5] is described as follows: Glutathione reactivity of compound at pH 7.5 measured by HPLC-MS assay. Format: physicochemical.
Data set [6] can be described thus: Glutathione reactivity of compound at pH 8 measured by HPLC-MS assay. Type of data set: physicochemical.
Data set [7] in a line: Glutathione reactivity of compound at pH 8.5 measured by HPLC-MS assay. Type of data set: physicochemical.
Data set [8] is described as follows: Glutathione reactivity of compound at pH 9 measured by HPLC-MS assay. Format: physicochemical.

In turn, `Sc1nc2ccccc2o1` showed a pIC50 in data set [1] of 4.77. For the same compound, the Activity in data set [2] was 116%. In addition, the Drug metabolism entry in data set [3] is “Metabolite_Detected”.
Turning to `Cn1c(=S)[nH]c2ccc(N)cc21`, the Activity in data set [4] is 67%.
Turning to `Cn1c(C#N)nc2cccc(Cl)c21`, the pIC50 in data set [1] is 4.70. In data set [2], the Activity was 89%.
`Sc1nc2cc(Cl)ccc2o1` showed a pIC50 in data set [1] of 4.02. The Drug metabolism result in data set [5], in data set [6], in data set [7] and in data set [8] was “Metabolite_Notdetected” each time.
As for `O=[N+]([O-])c1ccc2nc(S)sc2c1`, the Activity in data set [4] came out at 69%. The Drug metabolism entry in data set [5], in data set [6], in data set [7] and in data set [8] was “Metabolite_Notdetected” each time.
On to `S=c1[nH]c2c(Cl)cccc2o1`, for which, in data set [1], the pIC50 is 4.44.
Take `O=C(Cc1cccnc1)Nc1ccc2[nH]c(=S)oc2c1`: in data set [4], the Activity worked out at 50%.
Take `CC(=O)Nc1ccc2[nH]c(=S)n(C)c2c1`: the negative logarithm of the IC50 (pIC50) in data set [1] is 3.83.
In data set [1], `N#Cc1nc2cc(Cl)ccc2o1` gave a negative logarithm of the IC50 (pIC50) of 4.17. Also, the Activity in data set [2] was 101%.
In turn, `O=[N+]([O-])c1ccc2oc(=S)[nH]c2c1` showed a pIC50 in data set [1] of 5.05. For the same compound, the Drug metabolism entry in data set [5], in data set [6], in data set [7] and in data set [8] was “Metabolite_Notdetected” throughout.
The compound `O=C(Nc1cccc2[nH]c(=S)oc12)c1ccccc1` had a pIC50 in data set [1] of 3.89.
`S=c1[nH]c2ccc(Cl)cc2o1` gave a pIC50 in data set [1] of 4.19. The Drug metabolism entry in data set [5], in data set [6], in data set [7] and in data set [8] was “Metabolite_Notdetected” each time.
As for `N#Cc1cccc(-c2cccc3[nH]c(=S)sc23)c1`, in data set [4], the Activity was determined as 70%.
`O=C(Nc1ccc2[nH]c(=S)oc2c1)c1ccccc1` had a pIC50 in data set [1] of 4.31.
Turning to `Cn1c(=S)[nH]c2cccc(NC(=O)Cc3cccnc3)c21`, the Activity in data set [4] came out at 94%.
With `O=[N+]([O-])c1ccc2sc(=S)[nH]c2c1`, the Activity in data set [4] was found to be 58%. Also, the Drug metabolism result in data set [5], in data set [6], in data set [7] and in data set [8] was “Metabolite_Notdetected” each time.
In data set [1], `CCOc1ccc2nc(S)sc2c1` had a pIC50 of 5.05.
Turning to `Cn1c(=S)[nH]c2ccc(NC(=O)CCc3cccnc3)cc21`, the Activity in data set [4] turned out to be 72%.
Same read-out and setting: then `CC(=O)Nc1ccc2[nH]c(=S)oc2c1`, with 63%.
Turning to `O=C(Nc1ccc2[nH]c(=S)sc2c1)[C@H]1CCCN1`, the pIC50 in data set [1] is 4.02.
With `S=c1[nH]c2c(Cl)cccc2s1`, in data set [1], the pIC50 is 4.37. Also, the Drug metabolism result in data set [5], in data set [6], in data set [7] and in data set [8] was “Metabolite_Notdetected” in each case.
As to `C=CC(=O)Nc1nc2ccccc2s1`, the Activity in data set [4] amounted to 44%.
Consider `S=c1[nH]c2cccc(Cl)c2s1`, for which the pIC50 in data set [1] was 5.01. Moreover, the Drug metabolism entry in data set [5] is “Metabolite_Notdetected”; in data set [6], “Metabolite_Notdetected”; in data set [7], “Metabolite_Notdetected”; in data set [8], “Metabolite_Notdetected”; in data set [3], “Metabolite_Detected”. The Activity in data set [2] was determined as 59%.
In the case of `Cn1c(=S)[nH]c2cccc(NC(=O)c3ccccc3)c21`, the Activity in data set [4] was 47%.
`Cc1ccc2[nH]c(=S)oc2c1` had a pIC50 in data set [1] of 4.52. This compound yielded an Activity in data set [2] of 92%. Moreover, in data set [3], the Drug metabolism result is reported as “Metabolite_Detected”.
Turning to `CS(=O)(=O)c1nc2ccccc2s1`, in data set [4], the Activity stood at 88%.
The same measure, in the same setting: then `C=CC(=O)Nc1nc2ccccc2n1C`, with 83%; and `Cn1c(C#N)nc2ccc(Cl)cc21`, with 50%.
For the compound `COc1ccc2[nH]c(=S)sc2c1`, the pIC50 in data set [1] was 4.89.
Take `O=C(CCl)Nc1nc2ccccc2s1`: in data set [4], the Activity worked out at 73%.
The compound `Nc1cccc2[nH]c(=S)oc12` showed a pIC50 in data set [1] of 4.10.
The compound `Oc1cccc2oc(S)nc12` had a negative-log IC50 (pIC50) in data set [1] of 5.39. For the same compound, in data set [2], the Activity was determined as 87%. For the same compound, the Drug metabolism entry in data set [3] is recorded as “Metabolite_Detected”.
`S=c1[nH]c2cccc(Cl)c2o1` gave a pIC50 in data set [1] of 4.80. The Drug metabolism result in data set [5] is “Metabolite_Notdetected”; in data set [6], “Metabolite_Notdetected”; in data set [7], “Metabolite_Notdetected”; in data set [8], “Metabolite_Notdetected”; in data set [3], “Metabolite_Detected”. This compound also registered an Activity in data set [2] of 94%.
In data set [1], `COC(=O)c1ccc2[nH]c(=S)oc2c1` gave a pIC50 of 5.52.
For `COc1ccc2oc(=S)[nH]c2c1`, the Activity in data set [4] was 59%.
`Cn1c(C#N)nc2ccccc21`: in data set [4], the Activity was determined as 99%.
Still for that read-out and setting: the result for `Nc1ccc2nc(S)sc2c1` reads 80%; that for `S=c1[nH]c2cccc(-c3ccccc3)c2s1`, 54%; that for `Cn1c(=S)[nH]c2ccc([N+](=O)[O-])cc21`, 52%.
Take `N#Cc1nc2c(Cl)cccc2s1`: in data set [1], the pIC50 is 4.07.
`N#Cc1nc2cccc(Cl)c2[nH]1` had a pIC50 in data set [1] of 4.12. For the same compound, the Activity in data set [2] was 82%.
For the compound `N#Cc1nc2ccccc2s1`, in data set [4], the Activity amounted to 61%.
On to `Nc1ccc2[nH]c(=S)oc2c1`, for which the pIC50 in data set [1] was 4.57.
Regarding `N#Cc1nc2cccc(Cl)c2s1`, the pIC50 in data set [1] is 4.74. The same compound had an Activity in data set [2] of 72%.
As for `N#Cc1nc2ccc(Cl)cc2[nH]1`, the pIC50 in data set [1] was 4.55. Besides, in data set [2], the Activity is 71%.
`S=c1[nH]c2cccc(Br)c2s1` had a pIC50 in data set [1] of 4.96. In data set [2], this compound gave an Activity of 84%. The Drug metabolism result in data set [3] is listed as “Metabolite_Detected”.
As for `CC(=O)Nc1ccc2[nH]c(=S)sc2c1`, in data set [1], the negative-log IC50 (pIC50) was 3.89.
Take `Cn1c(=S)[nH]c2cccc(NC(=O)CCc3cccnc3)c21`: in data set [4], the Activity worked out at 92%.
Consider `O=C(CCc1cccnc1)Nc1ccc2[nH]c(=S)sc2c1`, for which the pIC50 in data set [1] is 4.59.
On to `C=CS(=O)(=O)c1nc2ccccc2s1`, for which, in data set [4], the Activity was 40%.
Turning to `COc1cccc2oc(=S)[nH]c12`, the pIC50 in data set [1] is 4.09.
`Cn1c(=S)[nH]c2ccc(NC(=O)Cc3cccnc3)cc21`: the Activity in data set [4] was determined as 89%.
On the same count and under the same terms, the result for `Cc1ccc2oc(=S)[nH]c2c1` reads 99%; that for `O=C(CCc1cccnc1)Nc1ccc2[nH]c(=S)oc2c1`, 56%; that for `S=c1[nH]c2cccc(Br)c2[nH]1`, 87%.
Compound `Cn1c(=S)[nH]c2ccc(NC(=O)[C@H]3CCCN3)cc21` showed a pIC50 in data set [1] of 3.96.
`Cn1c(=S)[nH]c2cccc(N)c21`: the Activity in data set [4] turned out to be 63%.
Regarding `S=c1[nH]c2cccc(Cl)c2[nH]1`, the pIC50 in data set [1] was 4.22.
With `N#Cc1nc2ccccc2[nH]1`, in data set [4], the Activity is 89%.
With `Sc1nc2ccccc2[nH]1` [2-MERCAPTOBENZIMIDAZOLE], the pIC50 in data set [1] was 3.94. In addition, the Activity in data set [2] was 100%. Also, in data set [3], the Drug metabolism result is recorded as “Metabolite_Notdetected”.
Compound `COc1ccc2sc(=S)[nH]c2c1` had a negative logarithm of the IC50 (pIC50) in data set [1] of 5.14.
With `Cc1ccc2sc(=S)[nH]c2c1`, the Activity in data set [4] turned out to be 56%.
`O=C(Cc1cccnc1)Nc1ccc2[nH]c(=S)sc2c1` had a pIC50 in data set [1] of 4.82.
For `O=C(Nc1ccc2[nH]c(=S)oc2c1)[C@H]1CCCN1`, in data set [4], the Activity was 65%.
For the compound `Sc1nc2ccccc2s1` [2-MERCAPTOBENZOTHIAZOLE], the pIC50 in data set [1] was 4.89. The compound also came in with an Activity in data set [2] of 85%. Besides, the Drug metabolism entry in data set [3] was “Metabolite_Detected”.
As for `N#Cc1nc2ccccc2o1`, the pIC50 in data set [1] is 4.08. This compound also gave an Activity in data set [2] of 82%.
Turning to `N#Cc1nc2ccc(Cl)cc2s1`, the Activity in data set [4] is 58%.
In data set [1], `O=C(Nc1ccc2nc(S)sc2c1)c1ccccc1` gave a pIC50 of 5.15.
Still for that read-out and setting: the result for `O=C(Cc1cccnc1)Nc1cccc2[nH]c(=S)oc12` reads 3.81; that for `Sc1nc2cc(Cl)ccc2s1`, 4.49.
As to `Cn1c(S)nc2ccccc21`, in data set [1], the pIC50 is 4.03. In data set [2], this compound had an Activity of 91%. Moreover, in data set [3], the Drug metabolism entry is recorded as “Metabolite_Notdetected”.
